In ChEMBL document CHEMBL5104159, “Synthesis and antitumor activity of a series of novel N-aryl-5-(2,2,2-trifluoroethoxy)-1,5-dihydro-2H-pyrrol-2-ones derivatives” (Bioorg Med Chem Lett, 2022) one finds IC50, viability and Activity data, which are given here for 19 compounds.

Data set [1] deals with K562. Nature of the data set: Antiproliferative activity against human K562 cells assessed as inhibition of cell growth. The data set is classed as functional, cell-based.
In data set [2] the test system is MDA-MB-231. Description: Antiproliferative activity against human MDA-MB-231 cells assessed as inhibition of cell growth. The data set is classed as functional, cell-based.
The test system of data set [3] is A549. Description: Antiproliferative activity against human A549 cells assessed as inhibition of cell growth. It is filed as functional, cell-based.
For data set [4], the system named is HeLa. Nature of the data set: Antiproliferative activity against human HeLa cells assessed as inhibition of cell growth. It is filed as functional, cell-based.
The nature of data set [5]: Cytotoxicity against human L02 cells assessed as cell viability at 2 ug/ml relative to control. It is filed as toxicity, cell-based. The note with it: at 2 µg/mL, read-out: Activity.
Data set [6] concerns K562. Description: Induction of cell cycle arrest in human K562 cells assessed as accumulation of cells at G1 phase at 10 uM by flow cytometry analysis (reference value: 73.3%). The data set is classed as functional.
Data set [7] relates to K562. Description: Induction of cell cycle arrest in human K562 cells assessed as accumulation of cells at G2 phase at 10 uM by flow cytometry analysis (reference value: 5.38%). The data set is classed as functional.
Data set [8] relates to K562. Nature of the data set: Induction of cell cycle arrest in human K562 cells assessed as accumulation of cells at S phase at 10 uM by flow cytometry analysis (reference value: 21.32%). It is filed as functional.
For data set [9], the system named is K562. Nature of the data set: Induction of apoptosis in human K562 cells assessed as viable cells at 10 uM by AnnexinV-FITC/propidium iodide staining based flow cytometric analysis (reference value: 86.4%). It is filed as functional. Particulars: read-out: Activity.
For data set [10], the system named is K562. Nature of the data set: Induction of apoptosis in human K562 cells assessed as early apoptotic cells at 10 uM by AnnexinV-FITC/propidium iodide staining based flow cytometric analysis (reference value: 2.56%). The data set is classed as functional.
Data set [11] concerns K562. Nature of the data set: Induction of apoptosis in human K562 cells assessed as late apoptotic cells at 10 uM by AnnexinV-FITC/propidium iodide staining based flow cytometric analysis (reference value: 5.1%). The data set is classed as functional.
Data set [12] relates to K562. Nature of the data set: Induction of apoptosis in human K562 cells assessed as dead cells at 10 uM by AnnexinV-FITC/propidium iodide staining based flow cytometric analysis (reference value: 5.94%). The data set is classed as functional.
In data set [13] the test system is K562. Nature of the data set: Induction of apoptosis in human K562 cells assessed as increase in FADD level at 100 uM measured after 48 hrs by human apoptosis array analysis. The data set is classed as functional, cell-based.
Data set [14] relates to K562. Nature of the data set: Induction of apoptosis in human K562 cells assessed as increase in pro-caspase 3 level at 100 uM measured after 48 hrs by human apoptosis array analysis. The data set is classed as functional, cell-based.
Data set [15] relates to K562. Nature of the data set: Induction of apoptosis in human K562 cells assessed as increase in cleaved caspase-3 level at 100 uM measured after 48 hrs by human apoptosis array analysis. It is filed as functional, cell-based.
The test system of data set [16] is K562. Nature of the data set: Induction of apoptosis in human K562 cells assessed as increase in HTRA2/omi level at 100 uM measured after 48 hrs by human apoptosis array analysis. The data set is classed as functional, cell-based.
Data set [17] relates to K562. Description: Induction of apoptosis in human K562 cells assessed as increase in SMAC/Diablo level at 100 uM measured after 48 hrs by human apoptosis array analysis. The data set is classed as functional, cell-based.
For data set [18], the system named is K562. Description: Induction of apoptosis in human K562 cells assessed as increase in Bax/Bcl-2 ratio at 100 uM measured after 48 hrs by human apoptosis array analysis. It is filed as functional, cell-based.

Structures are written as SMILES. Counter-ions that a name gives are not always drawn. Activity calls are given as the source filed them. No cut-off for these calls is given here.

Turning to `O=C1C=CC(OCC(F)(F)F)N1c1ccc(Cl)cc1F` (stereo unspecified), the IC50 in data set [1] was 6.21 µM; in [2] it was 6.1 µM; in [3], 6.63 µM; in data set [4], 8.32 µM.

Take `O=C1C=CC(OCC(F)(F)F)N1c1cc(F)cc(F)c1` (stereo unspecified): the IC50 in data set [1] was 0.52 µM; in [2] it was 7.84 µM; in [3] it was 5 µM; in data set [4] it was 8.46 µM. In addition, the viability at 2 ug/ml in data set [5] turned out to be 66%. Further, the Activity in data set [6] is 15.21%; in [7], 54.21%; in data set [8], 30.58%; in data set [10] it was 25.5%; in data set [11], 22.3%; in data set [12], 2.26%. Also, in data set [9], the viability at 10 µM came out at 50%.

`COc1cccc2c1C(=O)c1c(O)c3c(c(O)c1C2=O)C[C@@](O)(C(=O)CO)C[C@@H]3O[C@H]1C[C@H](N)[C@H](O)[C@H](C)O1` [DOXORUBICIN HYDROCHLORIDE]: the 50% inhibitory concentration (IC50) amounted to 0.34 µM in [1], 0.15 µM in [3] and 1.07 µM in [4].

For `Cc1ccc(N2C(=O)C=CC2OCC(F)(F)F)cc1` (stereo unspecified), the IC50 stood at 7.14 µM in [1], 15.8 µM in [2], 13.7 µM in data set [3] and 9.38 µM in [4].

For the compound `COc1ccc(/C=C\c2cc(OC)c(OC)c(OC)c2)cc1O` [COMBRETASTATIN A4], the Activity in data set [6] is given as 21.92%; in data set [7], 47.61%; in data set [8] it was 30.46%; in data set [10], 43.7%; in [11] it was 22.2%; in data set [12] it was 1.36%. Besides, the viability at 10 µM in data set [9] was 32.7%.

With `COC(=O)c1ccc(N2C(=O)C=CC2OCC(F)(F)F)cc1` (stereo unspecified), the IC50 worked out at 14.7 µM in data set [1], 12.1 µM in [2], 8.17 µM in data set [3] and 5.7 µM in data set [4].

As for `O=C1C=CC(OCC(F)(F)F)N1c1ccccc1F` (stereo unspecified), the half-maximal inhibitory concentration (IC50) in data set [1] came to 12 µM; in [2], 20.6 µM; in [3], 44.9 µM; in data set [4] it was 19.2 µM.

Take `O=C1C=CC(OCC(F)(F)F)N1c1cc(Cl)cc(Cl)c1` (stereo unspecified): the IC50 in [1] amounted to 1.64 µM; in data set [2] it was 2.43 µM; in data set [3] it was 1.63 µM; in [4], 5.92 µM.

For `CC(C)c1ccc(N2C(=O)C=CC2OCC(F)(F)F)cc1` (stereo unspecified), the IC50 in data set [1] turned out to be 6.62 µM; in data set [2], 6.64 µM; in data set [3], 9.57 µM; in [4], 5.8 µM.

For the compound `CC(C)NC1CC(=O)N(c2ccc(F)c(Cl)c2)C1OCC(F)(F)F` (stereo unspecified), the IC50 is 10.5 µM in data set [1], above 100 µM in [2], above 100 µM in data set [3] and 6.61 µM in data set [4]. In data set [5], the viability at 2 ug/ml was found to be 102%.

For the compound `O=C1C=CC(OCC(F)(F)F)N1c1ccc(C(F)(F)F)cc1` (stereo unspecified), the IC50 came to 13.1 µM in [1], 2.3 µM in data set [2], 8.39 µM in [3] and 36.2 µM in data set [4].

Turning to `CC(C)(C)c1ccc(N2C(=O)C=CC2OCC(F)(F)F)cc1` (stereo unspecified), the IC50 in data set [1] amounted to 0.07 µM; in data set [2], 1.86 µM; in data set [3], 8.5 µM; in [4] it was 18.1 µM. In data set [5], the viability at 2 ug/ml amounted to 81%. Moreover, the Activity is given as 18.84% in data set [6]; 80.18% in data set [7]; 0.98% in data set [8]; 33.3% in [10]; 22.8% in data set [11]; 2.4% in [12]. The viability at 10 µM in [9] amounted to 41.5%. Besides, the outcome in data set [13], in data set [14], in [15], in data set [16], in data set [17] and in data set [18] was Active.

`O=C1C=CC(OCC(F)(F)F)N1c1ccccc1` (stereo unspecified): the half-maximal inhibitory concentration (IC50) in [1] was 24.6 µM; in [2], 15.3 µM; in data set [3], 23.4 µM; in [4] it was above 100 µM.

For `O=C1C=CC(OCC(F)(F)F)N1c1ccc(Br)cc1` (stereo unspecified), the IC50 in [1] was 3.27 µM; in [2], 7.57 µM; in [3], 6.96 µM; in [4] it was 7.06 µM.

Turning to `O=C1c2c(O)ccc(O)c2C(=O)c2c(NCCNCCO)ccc(NCCNCCO)c21` [MITOXANTRONE], the figures for the IC50 in data set [1], in data set [3] and in [4] were 0.14 µM, 0.07 µM and 0.04 µM, respectively.

For `O=C1C=CC(OC(C(F)(F)F)C(F)(F)F)N1c1ccc(Cl)cc1` (stereo unspecified), the IC50 turned out to be 4.48 µM in [1], 2.41 µM in [2], 4.3 µM in [3] and 1.89 µM in data set [4].

Turning to `O=C1C=CC(OCC(F)(F)F)N1c1ccc([N+](=O)[O-])cc1` (stereo unspecified), the IC50 in data set [1] worked out at 1.53 µM; in data set [2] it was 2.83 µM; in [3] it was 3.27 µM; in data set [4] it was 2.38 µM.

For the compound `O=C1C=CC(OCC(F)(F)F)N1c1ccc(F)c(Cl)c1` (stereo unspecified), the IC50 is 6.32 µM in data set [1], 3.44 µM in [2], 7.69 µM in data set [3] and 3.11 µM in data set [4]. Also, the viability at 2 ug/ml in data set [5] came to 58%.

For the compound `CCc1ccc(N2C(=O)C=CC2OCC(F)(F)F)cc1` (stereo unspecified), the 50% inhibitory concentration (IC50) in data set [1] turned out to be 4.47 µM; in [2], 7.84 µM; in data set [3], 8.09 µM; in data set [4], 6.51 µM.
